Experiment [1] addresses T1, Bromodomain BRD-2 (1-473) (Homo sapiens, UniProt P25440).
T1 construct: Recombinant Human Bromodomains (BRD-2 (1-473), BRD-3 (1-435) and BRD-4 (1-477)); six-His tag (N); made in house; host or cells: E. coli (pET15b vector)
The experiment can be described thus: Fluorescence Anisotropy Binding Assay, BRD-2. To be noted: displacement of fluorescent ligand (Reference compound K) 5 nM, BRD-2 75 nM; read-out: pIC50 in the BRD-2 assay (converted). Here is the method: (§1) Fluorescence Anisotropy Binding Assay
(§2) All data was normalized to the mean of 16 high and 16 low control wells on each plate. A four parameter curve fit of the following form was then applied: y=a+((b−a)/(1+(10^x/10^c)^d)
(§3) Where ‘a’ is the minimum, ‘b’ is the Hill slope, ‘c’ is the pIC50 and ‘d’ is the maximum.
(§4) The His-tagged Bromodomain was extracted from E. coli cells using 0.1 mg/ml lysozyme and sonication. […] Further purification was completed by Superdex 200 prep grade size exclusion column. Purified protein was stored at −80 C in 20 mM HEPES pH 7.5 and 100 mM NaCl.
(§5) 10 μl of this reaction mixture was added using a micro multidrop to wells containing 100 nl of various concentrations of test compound or DMSO vehicle (1% final) in Greiner 384 well Black low volume microtitre plate and equilibrated in dark 60 mins at room temperature.
A general note: Fluorescence polarisation rises when a labelled molecule tumbles more slowly, as on binding a larger partner.

For experiment [2], the target named is T2, Bromodomain BRD-3 (1-435) (Homo sapiens, UniProt Q15059).
T2 construct: Recombinant Human Bromodomains (BRD-2 (1-473), BRD-3 (1-435) and BRD-4 (1-477)); six-His tag (N); made in house; host or cells: E. coli (pET15b vector)
T2 sequence (Q15059 1-435): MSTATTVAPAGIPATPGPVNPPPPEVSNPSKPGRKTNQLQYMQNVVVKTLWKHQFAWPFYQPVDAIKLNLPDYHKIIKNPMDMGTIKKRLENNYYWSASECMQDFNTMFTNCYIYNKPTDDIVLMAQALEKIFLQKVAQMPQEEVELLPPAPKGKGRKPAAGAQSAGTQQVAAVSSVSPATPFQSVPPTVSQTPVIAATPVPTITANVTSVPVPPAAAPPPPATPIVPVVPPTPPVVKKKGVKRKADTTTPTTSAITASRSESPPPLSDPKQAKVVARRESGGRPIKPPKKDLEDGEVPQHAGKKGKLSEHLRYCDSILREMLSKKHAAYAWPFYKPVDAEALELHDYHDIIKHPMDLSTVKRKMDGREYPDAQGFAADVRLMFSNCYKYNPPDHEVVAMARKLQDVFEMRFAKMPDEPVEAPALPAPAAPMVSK
The experiment is described as follows: Fluorescence Anisotropy Binding Assay, BRD-3. The settings on record: displacement of fluorescent ligand (Reference compound K) 5 nM, BRD-3 75 nM; read-out: pIC50 in the BRD-3 assay (converted). Here is the method:
as §1, §2, §3, §4, §5

The target in experiment [3] is Bromodomain BRD-4 (1-477) (Homo sapiens, UniProt O60885). The experiment can be described thus: biochemical. The settings on record: pIC50 in the BRD-4 assay, displacement of fluorescent ligand (Reference compound K) 5 nM, BRD-4 75 nM. Here is the method:
as §1, §2, §3, §4, §5

T1 sequence (P25440 1-473): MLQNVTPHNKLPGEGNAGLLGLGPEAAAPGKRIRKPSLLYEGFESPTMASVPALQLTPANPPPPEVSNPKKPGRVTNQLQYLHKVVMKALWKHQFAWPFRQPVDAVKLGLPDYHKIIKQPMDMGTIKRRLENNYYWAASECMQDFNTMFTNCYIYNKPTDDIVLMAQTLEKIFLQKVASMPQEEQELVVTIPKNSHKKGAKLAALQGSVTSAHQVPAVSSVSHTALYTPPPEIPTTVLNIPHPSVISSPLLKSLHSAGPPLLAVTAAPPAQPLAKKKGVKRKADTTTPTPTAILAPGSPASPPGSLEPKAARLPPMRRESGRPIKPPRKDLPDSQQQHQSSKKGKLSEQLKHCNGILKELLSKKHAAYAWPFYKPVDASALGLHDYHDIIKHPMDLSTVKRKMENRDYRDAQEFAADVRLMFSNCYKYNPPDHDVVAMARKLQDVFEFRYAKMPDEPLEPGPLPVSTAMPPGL

For the molecule `CC(=O)N1c2ccc(-c3ccc(C(=O)O)cc3)cc2[C@H](Nc2ccc(Cl)cc2)C[C@@H]1C` [Compound (II), 4-{(2S,4R)-1-acetyl-4-[(4-chlorophenyl)amino]-2-methyl-1,2,3,4-tetrahydro-6-quinolinyl}benzoic acid], the IC50 in experiment [1] and in experiment [2] was no more than 316 nM throughout.

Consider `CNCc1ccc(-c2ccc3c(c2)[C@H](NC(=O)OC(C)C)C[C@H](C)N3C(C)=O)cc1` [Compound (IV), 1-methylethyl ((2S,4R)-1-acetyl-2-methyl-6-{4-[(methylamino)methyl]pheny}-1,2,3,4-tetrahydro-4-quinolinyl)carbamate], for which the IC50 in experiment [1], in experiment [2] and in experiment [3] was no more than 1000 nM each time.

Source of the values: patent publication US9753034B2, “Process for the identification of a compound which inhibits the binding of the first bromodomain of each of human BRD-2, BRD-3, and BRD-4” (GLAXOSMITHKLINE LLC, priority 2009, dated 2017).
